Reference: PubChem BioAssay AID1963841 (Molecular Pharmacology Branch, DTP, NCI, 2024)

Test system: 439559-082-T-J2-PDC spheroid viability
Experiment: Anticancer human tumor 439559-082-T-J2-PDC patient-derived colon adenocarcinoma cell line growth inhibition [POLQ]
Settings: spheroids with HUVEC and MSC; for IC50: curve of first compound; for viability, T/C: stronger effect = lower value
Method in brief: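 PDC + HUVEC + MSC complex spheroids; POLQ inhibitors ± partner drugs; top conc. at/near clinical Cmax, else 10 microM (SN-38 1 microM), half-log dilutions; 37 degrees C, 5% CO2.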

[1] = second compound 0.0316 µM, first compound 0.0316 µM
[2] = second compound 0.0316 µM, first compound 0.1 µM
[3] = second compound 0.0316 µM, first compound 0.316 µM
[4] = second compound 0.0316 µM, first compound 1 µM
[5] = second compound 0.0316 µM, first compound 3.16 µM
[6] = second compound 0.0316 µM, first compound 10 µM
[7] = second compound 0.1 µM, first compound 0.0316 µM
[8] = second compound 0.1 µM, first compound 0.1 µM
[9] = second compound 0.1 µM, first compound 0.316 µM
[10] = second compound 0.1 µM, first compound 1 µM
[11] = second compound 0.1 µM, first compound 3.16 µM
[12] = second compound 0.1 µM, first compound 10 µM
[13] = second compound 0.316 µM, first compound 0.0316 µM
[14] = second compound 0.316 µM, first compound 0.1 µM
[15] = second compound 0.316 µM, first compound 0.316 µM
[16] = second compound 0.316 µM, first compound 1 µM
[17] = second compound 0.316 µM, first compound 3.16 µM
[18] = second compound 0.316 µM, first compound 10 µM
[19] = second compound 1 µM, first compound 0.0316 µM
[20] = second compound 1 µM, first compound 0.1 µM
[21] = second compound 1 µM, first compound 0.316 µM
[22] = second compound 1 µM, first compound 1 µM
[23] = second compound 1 µM, first compound 3.16 µM
[24] = second compound 1 µM, first compound 10 µM
[25] = second compound 3.16 µM, first compound 0.0316 µM
[26] = second compound 3.16 µM, first compound 0.1 µM
[27] = second compound 3.16 µM, first compound 0.316 µM
[28] = second compound 3.16 µM, first compound 1 µM
[29] = second compound 3.16 µM, first compound 3.16 µM
[30] = second compound 3.16 µM, first compound 10 µM
[31] = second compound 10 µM, first compound 0.0316 µM
[32] = second compound 10 µM, first compound 0.1 µM
[33] = second compound 10 µM, first compound 0.316 µM
[34] = second compound 10 µM, first compound 1 µM
[35] = second compound 10 µM, first compound 3.16 µM
[36] = second compound 10 µM, first compound 10 µM
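Also: spheroids exposed to compounds for seven days before readout.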
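For viability, T/C in this document: 100% = DMSO vehicle control viability.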

Compound: C=CC(=O)N1CCN(c2nc(=O)n(-c3c(C)ccnc3C(C)C)c3nc(-c4c(O)cccc4F)c(F)cc23)C(C)C1 (centres undefined) + Nc1ccc(C#CCN(C(=O)Cc2ncc(C(F)(F)F)cc2C(F)(F)F)c2ccc(F)cc2)nn1
- IC50 (second compound 0.0316 µM): > 10 µM
- IC50 (second compound 0.1 µM): > 10 µM
- IC50 (second compound 0.316 µM): > 10 µM
- IC50 (second compound 1 µM): > 10 µM
- IC50 (second compound 3.16 µM): > 10 µM
- IC50 (second compound 10 µM): > 10 µM
- viability, T/C [1]: 105%
- viability, T/C [2]: 100%
- viability, T/C [3]: 91.2%
- viability, T/C [4]: 94.5%
- viability, T/C [5]: 123%
- viability, T/C [6]: 104%
- viability, T/C [7]: 109%
- viability, T/C [8]: 88.9%
- viability, T/C [9]: 83.6%
- viability, T/C [10]: 98.1%
- viability, T/C [11]: 115%
- viability, T/C [12]: 99.2%
- viability, T/C [13]: 97.4%
- viability, T/C [14]: 95.7%
- viability, T/C [15]: 99.1%
- viability, T/C [16]: 99.1%
- viability, T/C [17]: 131%
- viability, T/C [18]: 100%
- viability, T/C [19]: 91.6%
- viability, T/C [20]: 97.1%
- viability, T/C [21]: 86.3%
- viability, T/C [22]: 100%
- viability, T/C [23]: 123%
- viability, T/C [24]: 99.1%
- viability, T/C [25]: 100%
- viability, T/C [26]: 90.3%
- viability, T/C [27]: 99.5%
- viability, T/C [28]: 98.7%
- viability, T/C [29]: 101%
- viability, T/C [30]: 89.5%
- viability, T/C [31]: 99.1%
- viability, T/C [32]: 96.1%
- viability, T/C [33]: 87.2%
- viability, T/C [34]: 94.7%
- viability, T/C [35]: 116%
- viability, T/C [36]: 95.3%

Compound: CC(C)n1c(=O)n(C)c2cnc3cc(F)c(-c4ccc(OCCCN5CCCCC5)nc4)cc3c21 + Nc1ccc(C#CCN(C(=O)Cc2ncc(C(F)(F)F)cc2C(F)(F)F)c2ccc(F)cc2)nn1
- IC50 (second compound 0.0316 µM): > 10 µM
- IC50 (second compound 0.1 µM): > 10 µM
- IC50 (second compound 0.316 µM): > 10 µM
- IC50 (second compound 1 µM): > 10 µM
- IC50 (second compound 3.16 µM): > 10 µM
- IC50 (second compound 10 µM): > 10 µM
- viability, T/C [1]: 88.2%
- viability, T/C [2]: 110%
- viability, T/C [3]: 113%
- viability, T/C [4]: 105%
- viability, T/C [5]: 110%
- viability, T/C [6]: 96.7%
- viability, T/C [7]: 106%
- viability, T/C [8]: 113%
- viability, T/C [9]: 104%
- viability, T/C [10]: 122%
- viability, T/C [11]: 102%
- viability, T/C [12]: 112%
- viability, T/C [13]: 103%
- viability, T/C [14]: 100%
- viability, T/C [15]: 102%
- viability, T/C [16]: 109%
- viability, T/C [17]: 110%
- viability, T/C [18]: 105%
- viability, T/C [19]: 111%
- viability, T/C [20]: 99.7%
- viability, T/C [21]: 101%
- viability, T/C [22]: 116%
- viability, T/C [23]: 89.3%
- viability, T/C [24]: 113%
- viability, T/C [25]: 98.1%
- viability, T/C [26]: 103%
- viability, T/C [27]: 101%
- viability, T/C [28]: 115%
- viability, T/C [29]: 102%
- viability, T/C [30]: 126%
- viability, T/C [31]: 102%
- viability, T/C [32]: 102%
- viability, T/C [33]: 110%
- viability, T/C [34]: 96.7%
- viability, T/C [35]: 127%
- viability, T/C [36]: 117%
